Starred links: 1 amine or outer side, 2 acyl side, 3 side chain; linkers in the order of their positions; H or OH if unused. Positions of bridges follow the written chain, without caps; N, C: chain ends. Non-standard residues stand in square brackets, D forms with d. Residues, ends and D or L forms follow the SMILES beside them. *: point of attachment. Trp(1-CH2CO2Me) = COC(=O)Cn1cc(C[C@H](N)C(=O)O)c2ccccc21; Trp(1-CH2COOH) = N[C@@H](Cc1cn(CC(=O)O)c2ccccc12)C(=O)O; Hyp = O=C(O)[C@@H]1C[C@@H](O)CN1; X5 = O=C(C(=O)*)N1CCc2ccccc2C1; Oxalyl = O=C(C(=O)[*:2])[*:1]; X9 = O=C(Nc1ccc(F)cc1F)C(=O)*; NMeNle = CCCC[C@H](NC)C(=O)O; X10 = Cc1cc(NC(=O)C(=O)*)no1; X2 = CCc1nnc(NC(=O)C(=O)*)s1; X4 = O=C(Nc1cccc(F)c1)C(=O)*; X1 = O=C(Oc1ccccc1)C(=O)*; NMeA = CN[C@@H](C)C(=O)O; Dab = NCC[C@H](N)C(=O)O; Dap = NC[C@H](N)C(=O)O; Oxamoyl = NC(=O)C(=O)*; X7 = CN(C)C(=O)C(=O)*
Each compound was assayed against T1, PD-1/PD-L1 (Homo sapiens, UniProt Q9NZQ7) (assay: PD-1/PD-L1 Homogenous Time-Resolved Fluorescence (HTRF) binding assay). Conditions: PD-L1-His 10 nM final, PD-1-Ig 20 nM final; inhibitors pre-incubated with PD-L1-His for 15 m.
T1 construct: TVMV protease site linker (C); made in house; host or cells: HEK293T cells
T1 sequence (Q9NZQ7 18-239): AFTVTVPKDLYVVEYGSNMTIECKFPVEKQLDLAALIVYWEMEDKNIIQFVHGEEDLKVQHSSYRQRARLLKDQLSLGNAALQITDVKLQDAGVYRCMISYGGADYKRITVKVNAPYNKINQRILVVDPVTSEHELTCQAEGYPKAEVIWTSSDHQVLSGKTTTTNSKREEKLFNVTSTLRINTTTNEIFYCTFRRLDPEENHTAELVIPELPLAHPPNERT
Excerpt: The ability of the compounds of formula (I) to bind to PD-L1 was investigated using a PD-1/PD-L1 Homogenous Time-Resolved Fluorescence (HTRF) binding assay.
Homogenous Time-Resolved Fluorescence (HTRF) Binding Assay
The interaction of PD-1 and PD-L1 can be assessed using soluble, purified preparations of the extracellular domains of the two proteins. The PD-1 and PD-L1 protein extracellular domains were expressed as fusion proteins with detection tags, for PD-1, the tag was the Fc portion of Immunoglobulin (PD-1-Ig) and for PD-L1 it was the 6 histidine motif (PD-L1-His). All binding studies were performed in an HTRF assay buffer consisting of dPBS supplemented with 0.1% […] bovine serum albumin and 0.05% (v/v) Tween-20. For the h/PD-L1-His binding assay, inhibitors were pre-incubated with PD-L1-His (10 nM final) for 15 m in 4 μl of assay buffer, followed by addition of PD-1-Ig (20 nM final) in 1 μl of assay buffer and further incubation for 15m. HTRF detection was achieved using europium crypate-labeled anti-Ig (1 nM final) and allophycocyanin (APC) labeled anti-His (20 nM final). Antibodies were diluted in HTRF detection buffer and 5 μl was dispensed on top of the binding reaction. The reaction mixture was allowed to equilibrate for 30 minutes and the resulting signal (665 nm/620 nm ratio) was obtained using an EnVision fluorometer. Additional binding assays were established between the human proteins PD-1-Ig/PD-L2-His (20 & 5 nM, respectively) and CD80-His/PD-L1-Ig (100 & 10 nM, respectively).
Recombinant Proteins: Human PD-1 (25-167) with a C-terminal human Fc domain of immunoglobulin G (Ig) epitope tag [hPD-1 (25-167)-3S-IG] and human PD-L1 (18-239) with a C-terminal His epitope tag [hPD-L1(18-239)-TVMV-His] were expressed in HEK293T cells and purified sequentially by ProteinA affinity chromatography and size exclusion chromatography. Human PD-L2-His and CD80-His was obtained through commercial sources.
Table 1 lists the IC50 values for representative examples of this disclosure measured in the PD-1/PD-L1 Homogenous Time-Resolved Fluorescence (HTRF) binding assay.

Structure (SMILES)	IC50 [nM]
CCCC[C@H]1C(=O)N(C)[C@@H](CCCC)C(=O)N[C@@H](CC(C)C)C(=O)N[C@H](C(=O)NCC(N)=O)CSCC(=O)N[C@@H](Cc2ccc(O)cc2)C(=O)N(C)[C@@H](C)C(=O)N[C@@H](CC(N)=O)C(=O)N2CCC[C@H]2C(=O)N[C@@H](CNC(=O)C(=O)O)C(=O)N[C@@H](CC(C)C)C(=O)N2C[C@H](O)C[C@H]2C(=O)N[C@@H](Cc2c[nH]c3ccccc23)C(=O)N[C@@H](CCNC(=O)C(=O)O)C(=O)N[C@@H](Cc2cn(CC(=O)O)c3ccccc23)C(=O)N1C [Compound 4001] ({CH2CO}-Y[NMeA]NP[Dap](Oxalyl)L[Hyp]W[Dab](Oxalyl)[Trp(1-CH2COOH)][NMeNle][NMeNle]LCG-NH2; thioether N-14)	3.6
CCCC[C@H]1C(=O)N(C)[C@@H](CCCC)C(=O)N[C@@H](CC(C)C)C(=O)N[C@H](C(=O)NCC(N)=O)CSCC(=O)N[C@@H](Cc2ccc(O)cc2)C(=O)N(C)[C@@H](C)C(=O)N[C@@H](CC(N)=O)C(=O)N2CCC[C@H]2C(=O)N[C@@H](CNC(=O)C(=O)Nc2cc(C)on2)C(=O)N[C@@H](CC(C)C)C(=O)N2C[C@H](O)C[C@H]2C(=O)N[C@@H](Cc2c[nH]c3ccccc23)C(=O)N[C@@H](CCNC(=O)C(=O)Nc2cc(C)on2)C(=O)N[C@@H](Cc2cn(CC(=O)OC)c3ccccc23)C(=O)N1C [Compound 2004] ({CH2CO}-Y[NMeA]NP[Dap](X10)L[Hyp]W[Dab](X10)[Trp(1-CH2CO2Me)][NMeNle][NMeNle]LCG-NH2; thioether N-14)	3
CCCC[C@H]1C(=O)N(C)[C@@H](CCCC)C(=O)N[C@@H](CC(C)C)C(=O)N[C@H](C(=O)NCC(N)=O)CSCC(=O)N[C@@H](Cc2ccc(O)cc2)C(=O)N(C)[C@@H](C)C(=O)N[C@@H](CC(N)=O)C(=O)N2CCC[C@H]2C(=O)N[C@@H](CNC(=O)C(=O)Nc2cccc(F)c2)C(=O)N[C@@H](CC(C)C)C(=O)N2C[C@H](O)C[C@H]2C(=O)N[C@@H](Cc2c[nH]c3ccccc23)C(=O)N[C@@H](CCNC(=O)C(=O)Nc2cccc(F)c2)C(=O)N[C@@H](Cc2cn(CC(=O)OC)c3ccccc23)C(=O)N1C [Compound 2003] ({CH2CO}-Y[NMeA]NP[Dap](X4)L[Hyp]W[Dab](X4)[Trp(1-CH2CO2Me)][NMeNle][NMeNle]LCG-NH2; thioether N-14)	370
CCCC[C@H]1C(=O)N(C)[C@@H](CCCC)C(=O)N[C@@H](CC(C)C)C(=O)N[C@H](C(=O)NCC(N)=O)CSCC(=O)N[C@@H](Cc2ccc(O)cc2)C(=O)N(C)[C@@H](C)C(=O)N[C@@H](CC(N)=O)C(=O)N2CCC[C@H]2C(=O)N[C@@H](CNC(=O)C(=O)O)C(=O)N[C@@H](CC(C)C)C(=O)N2C[C@H](O)C[C@H]2C(=O)N[C@@H](Cc2c[nH]c3ccccc23)C(=O)N[C@@H](CCN)C(=O)N[C@@H](Cc2cn(CC(=O)OC)c3ccccc23)C(=O)N1C [Compound 1002] ({CH2CO}-Y[NMeA]NP[Dap](Oxalyl)L[Hyp]W[Dab][Trp(1-CH2CO2Me)][NMeNle][NMeNle]LCG-NH2; thioether N-14)	3.1
CCCC[C@H]1C(=O)N(C)[C@@H](CCCC)C(=O)N[C@@H](CC(C)C)C(=O)N[C@H](C(=O)NCC(N)=O)CSCC(=O)N[C@@H](Cc2ccc(O)cc2)C(=O)N(C)[C@@H](C)C(=O)N[C@@H](CC(N)=O)C(=O)N2CCC[C@H]2C(=O)N[C@@H](CNC(=O)C(=O)N2CCc3ccccc3C2)C(=O)N[C@@H](CC(C)C)C(=O)N2C[C@H](O)C[C@H]2C(=O)N[C@@H](Cc2c[nH]c3ccccc23)C(=O)N[C@@H](CCNC(=O)C(=O)N2CCc3ccccc3C2)C(=O)N[C@@H](Cc2cn(CC(=O)OC)c3ccccc23)C(=O)N1C [Compound 2001] ({CH2CO}-Y[NMeA]NP[Dap](X5)L[Hyp]W[Dab](X5)[Trp(1-CH2CO2Me)][NMeNle][NMeNle]LCG-NH2; thioether N-14)	3.4
CCCC[C@H]1C(=O)N(C)[C@@H](CCCC)C(=O)N[C@@H](CC(C)C)C(=O)N[C@H](C(=O)NCC(N)=O)CSCC(=O)N[C@@H](Cc2ccc(O)cc2)C(=O)N(C)[C@@H](C)C(=O)N[C@@H](CC(N)=O)C(=O)N2CCC[C@H]2C(=O)N[C@@H](CNC(=O)C(=O)O)C(=O)N[C@@H](CC(C)C)C(=O)N2C[C@H](O)C[C@H]2C(=O)N[C@@H](Cc2c[nH]c3ccccc23)C(=O)N[C@@H](CCNC(=O)C(=O)O)C(=O)N[C@@H](Cc2cn(CC(=O)OC)c3ccccc23)C(=O)N1C [Compound 5001] ({CH2CO}-Y[NMeA]NP[Dap](Oxalyl)L[Hyp]W[Dab](Oxalyl)[Trp(1-CH2CO2Me)][NMeNle][NMeNle]LCG-NH2; thioether N-14)	2.6
CCCC[C@H]1C(=O)N(C)[C@@H](CCCC)C(=O)N[C@@H](CC(C)C)C(=O)N[C@H](C(=O)NCC(N)=O)CSCC(=O)N[C@@H](Cc2ccc(O)cc2)C(=O)N(C)[C@@H](C)C(=O)N[C@@H](CC(N)=O)C(=O)N2CCC[C@H]2C(=O)N[C@@H](CNC(=O)C(=O)Nc2ccc(F)cc2F)C(=O)N[C@@H](CC(C)C)C(=O)N2C[C@H](O)C[C@H]2C(=O)N[C@@H](Cc2c[nH]c3ccccc23)C(=O)N[C@@H](CCNC(=O)C(=O)Nc2ccc(F)cc2F)C(=O)N[C@@H](Cc2cn(CC(=O)OC)c3ccccc23)C(=O)N1C [Compound 2010] ({CH2CO}-Y[NMeA]NP[Dap](X9)L[Hyp]W[Dab](X9)[Trp(1-CH2CO2Me)][NMeNle][NMeNle]LCG-NH2; thioether N-14)	1.8
CCCC[C@H]1C(=O)N(C)[C@@H](CCCC)C(=O)N[C@@H](CC(C)C)C(=O)N[C@H](C(=O)NCC(N)=O)CSCC(=O)N[C@@H](Cc2ccc(O)cc2)C(=O)N(C)[C@@H](C)C(=O)N[C@@H](CC(N)=O)C(=O)N2CCC[C@H]2C(=O)N[C@@H](CNC(=O)C(N)=O)C(=O)N[C@@H](CC(C)C)C(=O)N2C[C@H](O)C[C@H]2C(=O)N[C@@H](Cc2c[nH]c3ccccc23)C(=O)N[C@@H](CCNC(=O)C(N)=O)C(=O)N[C@@H](Cc2cn(CC(=O)OC)c3ccccc23)C(=O)N1C [Compound 2006] ({CH2CO}-Y[NMeA]NP[Dap](Oxamoyl)L[Hyp]W[Dab](Oxamoyl)[Trp(1-CH2CO2Me)][NMeNle][NMeNle]LCG-NH2; thioether N-14)	2.7
CCCC[C@H]1C(=O)N(C)[C@@H](CCCC)C(=O)N[C@@H](CC(C)C)C(=O)N[C@H](C(=O)NCC(N)=O)CSCC(=O)N[C@@H](Cc2ccc(O)cc2)C(=O)N(C)[C@@H](C)C(=O)N[C@@H](CC(N)=O)C(=O)N2CCC[C@H]2C(=O)N[C@@H](CNC(=O)C(=O)Nc2nnc(CC)s2)C(=O)N[C@@H](CC(C)C)C(=O)N2C[C@H](O)C[C@H]2C(=O)N[C@@H](Cc2c[nH]c3ccccc23)C(=O)N[C@@H](CCNC(=O)C(=O)Nc2nnc(CC)s2)C(=O)N[C@@H](Cc2cn(CC(=O)OC)c3ccccc23)C(=O)N1C [Compound 2008] ({CH2CO}-Y[NMeA]NP[Dap](X2)L[Hyp]W[Dab](X2)[Trp(1-CH2CO2Me)][NMeNle][NMeNle]LCG-NH2; thioether N-14)	3.2
CCCC[C@H]1C(=O)N(C)[C@@H](CCCC)C(=O)N[C@@H](CC(C)C)C(=O)N[C@H](C(=O)NCC(N)=O)CSCC(=O)N[C@@H](Cc2ccc(O)cc2)C(=O)N(C)[C@@H](C)C(=O)N[C@@H](CC(N)=O)C(=O)N2CCC[C@H]2C(=O)N[C@@H](CNC(=O)C(=O)Oc2ccccc2)C(=O)N[C@@H](CC(C)C)C(=O)N2C[C@H](O)C[C@H]2C(=O)N[C@@H](Cc2c[nH]c3ccccc23)C(=O)N[C@@H](CCNC(=O)C(=O)Oc2ccccc2)C(=O)N[C@@H](Cc2cn(CC(=O)OC)c3ccccc23)C(=O)N1C [Compound 3003] ({CH2CO}-Y[NMeA]NP[Dap](X1)L[Hyp]W[Dab](X1)[Trp(1-CH2CO2Me)][NMeNle][NMeNle]LCG-NH2; thioether N-14)	0.64
CCCC[C@H]1C(=O)N(C)[C@@H](CCCC)C(=O)N[C@@H](CC(C)C)C(=O)N[C@H](C(=O)NCC(N)=O)CSCC(=O)N[C@@H](Cc2ccc(O)cc2)C(=O)N(C)[C@@H](C)C(=O)N[C@@H](CC(N)=O)C(=O)N2CCC[C@H]2C(=O)N[C@@H](CNC(=O)C(=O)N(C)C)C(=O)N[C@@H](CC(C)C)C(=O)N2C[C@H](O)C[C@H]2C(=O)N[C@@H](Cc2c[nH]c3ccccc23)C(=O)N[C@@H](CCNC(=O)C(=O)N(C)C)C(=O)N[C@@H](Cc2cn(CC(=O)OC)c3ccccc23)C(=O)N1C [Compound 2005] ({CH2CO}-Y[NMeA]NP[Dap](X7)L[Hyp]W[Dab](X7)[Trp(1-CH2CO2Me)][NMeNle][NMeNle]LCG-NH2; thioether N-14)	2.4

Reference: patent US20230063238A1, “IMMUNOMODULATORS” (Bristol-Myers Squibb Company, priority 2020, published 2023)
